# Active and inactive are the calls of the source.
# Key:
# [1] = target: T1, Sentrin-specific protease 6 (Homo sapiens, UniProt Q9GZR1); assay type: functional;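 further: Luminescence-based dose-response confirmatory assay of SENP6 inhibition, following up an ultra-high-throughput screen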
# T1 sequence (Q9GZR1 whole entry): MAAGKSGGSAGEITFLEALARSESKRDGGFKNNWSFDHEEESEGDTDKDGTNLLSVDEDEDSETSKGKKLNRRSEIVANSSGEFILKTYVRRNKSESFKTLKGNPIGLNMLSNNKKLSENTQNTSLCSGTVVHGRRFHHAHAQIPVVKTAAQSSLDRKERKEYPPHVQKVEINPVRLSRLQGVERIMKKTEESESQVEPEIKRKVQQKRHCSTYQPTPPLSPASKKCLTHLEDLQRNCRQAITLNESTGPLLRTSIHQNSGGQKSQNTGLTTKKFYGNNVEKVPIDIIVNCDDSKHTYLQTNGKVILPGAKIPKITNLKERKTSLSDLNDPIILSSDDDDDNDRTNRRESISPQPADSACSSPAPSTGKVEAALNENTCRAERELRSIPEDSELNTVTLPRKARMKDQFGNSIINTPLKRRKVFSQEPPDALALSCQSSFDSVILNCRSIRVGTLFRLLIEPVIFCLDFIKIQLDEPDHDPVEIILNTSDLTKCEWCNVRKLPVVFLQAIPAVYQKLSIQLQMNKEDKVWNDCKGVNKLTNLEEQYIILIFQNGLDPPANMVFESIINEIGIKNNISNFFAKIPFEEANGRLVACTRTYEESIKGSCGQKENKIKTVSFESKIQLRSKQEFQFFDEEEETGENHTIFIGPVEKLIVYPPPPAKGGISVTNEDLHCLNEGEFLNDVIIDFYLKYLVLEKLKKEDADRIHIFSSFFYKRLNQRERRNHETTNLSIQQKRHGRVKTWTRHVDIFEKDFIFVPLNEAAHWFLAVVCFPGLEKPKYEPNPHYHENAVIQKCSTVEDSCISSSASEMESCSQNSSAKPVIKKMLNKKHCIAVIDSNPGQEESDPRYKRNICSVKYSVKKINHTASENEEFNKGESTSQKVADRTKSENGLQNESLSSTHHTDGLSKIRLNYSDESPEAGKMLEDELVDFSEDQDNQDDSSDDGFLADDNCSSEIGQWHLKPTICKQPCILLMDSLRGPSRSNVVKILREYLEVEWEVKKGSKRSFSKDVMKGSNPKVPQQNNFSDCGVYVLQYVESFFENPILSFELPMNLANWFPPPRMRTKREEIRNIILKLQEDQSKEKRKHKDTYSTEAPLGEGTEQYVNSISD
# [2] = target: T2, Sentrin-specific protease 8 (Homo sapiens, UniProt Q96LD8); assay type: functional;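 further: luminescence read-out of SENP8 inhibition, dose-response confirmation following an ultra-high-throughput screen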
# T2 sequence (Q96LD8 whole entry): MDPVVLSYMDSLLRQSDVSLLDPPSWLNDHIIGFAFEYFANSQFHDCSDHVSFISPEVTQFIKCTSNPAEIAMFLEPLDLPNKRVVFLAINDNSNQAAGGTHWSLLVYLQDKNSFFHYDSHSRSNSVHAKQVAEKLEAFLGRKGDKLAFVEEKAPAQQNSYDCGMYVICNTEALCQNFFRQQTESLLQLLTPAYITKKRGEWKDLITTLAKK
# Caspase-3 = target: T3, Caspase-3 (Homo sapiens, UniProt P42574); assay type: functional;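 further: Dose-response selectivity test against caspase-3 for candidate inhibitors of sentrin-specific proteases (SENPs)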
# T3 sequence (P42574 whole entry): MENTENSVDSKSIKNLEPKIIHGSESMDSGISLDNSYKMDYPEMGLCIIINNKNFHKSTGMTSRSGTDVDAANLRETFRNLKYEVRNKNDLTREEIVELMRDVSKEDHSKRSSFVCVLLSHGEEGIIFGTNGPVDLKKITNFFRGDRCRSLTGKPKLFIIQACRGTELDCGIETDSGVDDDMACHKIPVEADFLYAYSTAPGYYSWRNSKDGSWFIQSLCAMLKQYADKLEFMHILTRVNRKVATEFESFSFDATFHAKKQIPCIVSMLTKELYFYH
# [3] = target: T4, Sentrin-specific protease 7 (Homo sapiens, UniProt Q9BQF6); assay type: functional;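 further: Luminescence-based dose-response confirmation of ultra-high-throughput screening hits, measuring inhibition of SENP7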
# T4 sequence (Q9BQF6 whole entry): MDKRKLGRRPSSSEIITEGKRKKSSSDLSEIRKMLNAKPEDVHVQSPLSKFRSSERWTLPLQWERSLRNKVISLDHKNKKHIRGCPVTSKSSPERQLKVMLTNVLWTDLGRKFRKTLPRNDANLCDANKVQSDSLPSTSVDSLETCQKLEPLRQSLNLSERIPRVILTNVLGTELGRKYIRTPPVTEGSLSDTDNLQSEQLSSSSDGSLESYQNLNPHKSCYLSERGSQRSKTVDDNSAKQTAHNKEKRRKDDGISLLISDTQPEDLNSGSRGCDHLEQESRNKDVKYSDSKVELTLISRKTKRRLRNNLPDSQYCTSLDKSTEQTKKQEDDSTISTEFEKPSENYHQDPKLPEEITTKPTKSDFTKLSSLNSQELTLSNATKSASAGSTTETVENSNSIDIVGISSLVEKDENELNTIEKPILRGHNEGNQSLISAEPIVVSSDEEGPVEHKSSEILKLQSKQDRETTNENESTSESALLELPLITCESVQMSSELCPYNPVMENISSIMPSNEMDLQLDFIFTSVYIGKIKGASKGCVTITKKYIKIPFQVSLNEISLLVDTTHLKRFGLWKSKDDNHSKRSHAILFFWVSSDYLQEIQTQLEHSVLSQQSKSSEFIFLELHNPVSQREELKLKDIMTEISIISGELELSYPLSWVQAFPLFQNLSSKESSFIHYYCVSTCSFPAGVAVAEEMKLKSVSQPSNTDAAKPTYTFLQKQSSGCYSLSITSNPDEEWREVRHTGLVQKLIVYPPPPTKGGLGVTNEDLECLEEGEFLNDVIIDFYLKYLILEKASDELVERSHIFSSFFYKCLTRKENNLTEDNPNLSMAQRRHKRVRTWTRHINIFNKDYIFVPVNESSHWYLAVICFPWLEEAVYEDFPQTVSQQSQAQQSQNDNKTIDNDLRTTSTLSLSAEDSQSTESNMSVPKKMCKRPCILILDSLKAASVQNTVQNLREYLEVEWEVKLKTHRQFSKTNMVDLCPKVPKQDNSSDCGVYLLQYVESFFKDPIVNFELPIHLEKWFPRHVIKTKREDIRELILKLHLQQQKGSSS
# [4] = target: Voltage-dependent T-type calcium channel subunit alpha-1H (Homo sapiens, UniProt O95180); assay type: functional;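 further: channel activity triggered by adding a high calcium stimulation buffer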
# H4 = test: Luminescence Cell-Based Dose Response HTS to Identify Activators of 5'UTR Stem-Loop Driven Prion Protein mRNA Translation in H4 Neuroglioblastoma Cells. [Related pubchem assays: 1829 (Project Summary), 1814 (Primary HTS)]; assay type: functional; details: Homo sapiens
# [5] = Luminescence Cell-Based Dose Response HTS to Identify Activators of Luciferase Translation or Activity in H4 […] Cells. [Related pubchem assays: 1829 (Project Summary), 1814 (Primary HTS)]; assay type: functional
# [6] = Luminescence Cell-Based Dose Confirmation HTS to Identify Activators of 5'UTR Stem-Loop Driven Alpha-Synuclein mRNA Translation in H4 Neuroglioblastoma Cells. [Related pubchem assays: 1829 (Project Summary), 1814 (Primary HTS)]; assay type: functional
# HeLa = test: HeLa cell cytotoxicity, dose response, cytotoxicity control for MITF activator project, CellTiter-Glo luminescence, cherry-pick samples (AID 540259); assay type: functional, cell-based; details: Homo sapiens
# [7] = target: T5, Nuclear receptor subfamily 0 group B member 1 (Homo sapiens, UniProt P51843); test: Luminescence-based cell-based high throughput dose response assay for inhibitors of the orphan nuclear receptor subfamily 0, group B, member 1 (DAX1; NR0B1). [Related pubchem assays (depositor defined):AID504766, AID504790]; assay type: functional
# T5 sequence (P51843 whole entry): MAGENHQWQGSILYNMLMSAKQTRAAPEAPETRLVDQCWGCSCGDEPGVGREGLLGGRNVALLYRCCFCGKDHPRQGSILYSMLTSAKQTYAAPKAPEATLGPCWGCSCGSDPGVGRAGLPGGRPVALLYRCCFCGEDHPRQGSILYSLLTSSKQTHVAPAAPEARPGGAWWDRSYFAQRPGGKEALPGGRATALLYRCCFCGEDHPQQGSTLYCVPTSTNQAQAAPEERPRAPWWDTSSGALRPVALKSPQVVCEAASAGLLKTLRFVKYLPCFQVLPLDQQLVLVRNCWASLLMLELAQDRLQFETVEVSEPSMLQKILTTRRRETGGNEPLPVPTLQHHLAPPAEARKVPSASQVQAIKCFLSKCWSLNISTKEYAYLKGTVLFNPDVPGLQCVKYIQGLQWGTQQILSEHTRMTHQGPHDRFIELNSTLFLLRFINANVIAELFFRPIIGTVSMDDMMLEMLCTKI
# HEK293 = test: cells; assay type: functional, cell-based; details: Homo sapiens
# [8] = target: Hepatocyte growth factor receptor (Homo sapiens, UniProt P08581); assay type: functional;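 further: kinase panel profiling across the kinome, with MET as the panel member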
# [9] = target: T6, Serine/threonine-protein kinase D3 (Homo sapiens, UniProt O94806); assay type: functional;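 further: determined within a kinase panel screen, with PRKCN as the panel member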
# T6 sequence (O94806 whole entry): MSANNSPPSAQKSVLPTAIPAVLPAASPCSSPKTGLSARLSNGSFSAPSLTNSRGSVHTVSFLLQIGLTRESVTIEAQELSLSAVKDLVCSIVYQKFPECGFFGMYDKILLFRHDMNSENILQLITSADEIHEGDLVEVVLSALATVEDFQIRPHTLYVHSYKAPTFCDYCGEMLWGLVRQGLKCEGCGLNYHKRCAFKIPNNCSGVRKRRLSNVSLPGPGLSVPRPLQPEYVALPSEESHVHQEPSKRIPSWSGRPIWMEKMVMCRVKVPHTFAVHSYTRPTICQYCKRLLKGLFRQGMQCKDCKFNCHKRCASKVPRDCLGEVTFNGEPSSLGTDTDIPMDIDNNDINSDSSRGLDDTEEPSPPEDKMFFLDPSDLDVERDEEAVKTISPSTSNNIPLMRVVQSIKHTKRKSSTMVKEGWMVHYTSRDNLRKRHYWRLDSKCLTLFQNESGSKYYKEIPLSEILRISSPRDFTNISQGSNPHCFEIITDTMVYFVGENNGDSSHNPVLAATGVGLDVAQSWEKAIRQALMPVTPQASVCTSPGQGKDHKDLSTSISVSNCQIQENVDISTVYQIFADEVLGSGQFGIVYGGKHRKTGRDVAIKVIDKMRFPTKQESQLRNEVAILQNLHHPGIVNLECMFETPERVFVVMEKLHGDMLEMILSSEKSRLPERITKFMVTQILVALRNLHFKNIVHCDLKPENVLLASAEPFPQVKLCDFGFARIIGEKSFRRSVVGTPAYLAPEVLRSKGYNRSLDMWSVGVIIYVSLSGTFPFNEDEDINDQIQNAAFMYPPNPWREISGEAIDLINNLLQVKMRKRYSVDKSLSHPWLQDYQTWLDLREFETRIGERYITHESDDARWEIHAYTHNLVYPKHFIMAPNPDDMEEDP
# [10] = target: Voltage-gated inwardly rectifying potassium channel KCNH2 (Homo sapiens, UniProt Q12809); details: Potency;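 further: confirmatory quantitative high-throughput screen measuring inhibition of hERG channel activity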
# BJ [11] = test: cytotoxicity toward Ras-transformed BJeLR fibroblasts, dose response, cell-based, alamar blue fluorescence, cherrypicked samples (AID 2631); assay type: functional; details: Homo sapiens;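 further: confirmatory dose-response assay in RAS-dependent BJ fibroblasts engineered with TERT, LT and ST, with cytotoxicity read by fluorescence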
# [12] = inhibitors of firefly luciferase expression or activity, dose response, H4 neuroglioma cells, luminescence (AID 1990); assay type: functional, cell-based
# BJ [13] = test: cytotoxicity toward BJ-TERT-LT-ST fibroblasts, dose response, cell-based, RAS-independent, luminescence (AID 1935); assay type: functional; details: Homo sapiens;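 further: BJ fibroblasts immortalized with TERT plus LT and ST oncogenes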
# [14] = inhibitors of SNCA 5'UTR-driven reporter translation, confirmation, H4 neuroglioma cells, luminescence (AID 1988); assay type: functional, cell-based
# BJ [15] = test: cytotoxicity toward BJ-TERT fibroblasts, dose response, cell-based, RAS-independent, luminescence (AID 1933); assay type: functional; details: Homo sapiens
# [16] = cytotoxicity toward DRD oncogenic fibroblasts, dose response, cell-based, non-viral oncogenic, luminescence (AID 1934); assay type: functional; details: Homo sapiens
# [17] = Luminescence Cell-Based Dose Response HTS to Identify Inhibitors of 5'UTR Stem-Loop Driven Prion Protein mRNA Translation in H4 Neuroglioblastoma Cells. [Related pubchem assays: 1827 (Project Summary), 1813 (Primary HTS)]; assay type: functional
# BJ [18] = test: cells; assay type: functional, cell-based; details: Homo sapiens
# Sequence of Voltage-gated inwardly rectifying potassium channel KCNH2 (Q12809 whole entry): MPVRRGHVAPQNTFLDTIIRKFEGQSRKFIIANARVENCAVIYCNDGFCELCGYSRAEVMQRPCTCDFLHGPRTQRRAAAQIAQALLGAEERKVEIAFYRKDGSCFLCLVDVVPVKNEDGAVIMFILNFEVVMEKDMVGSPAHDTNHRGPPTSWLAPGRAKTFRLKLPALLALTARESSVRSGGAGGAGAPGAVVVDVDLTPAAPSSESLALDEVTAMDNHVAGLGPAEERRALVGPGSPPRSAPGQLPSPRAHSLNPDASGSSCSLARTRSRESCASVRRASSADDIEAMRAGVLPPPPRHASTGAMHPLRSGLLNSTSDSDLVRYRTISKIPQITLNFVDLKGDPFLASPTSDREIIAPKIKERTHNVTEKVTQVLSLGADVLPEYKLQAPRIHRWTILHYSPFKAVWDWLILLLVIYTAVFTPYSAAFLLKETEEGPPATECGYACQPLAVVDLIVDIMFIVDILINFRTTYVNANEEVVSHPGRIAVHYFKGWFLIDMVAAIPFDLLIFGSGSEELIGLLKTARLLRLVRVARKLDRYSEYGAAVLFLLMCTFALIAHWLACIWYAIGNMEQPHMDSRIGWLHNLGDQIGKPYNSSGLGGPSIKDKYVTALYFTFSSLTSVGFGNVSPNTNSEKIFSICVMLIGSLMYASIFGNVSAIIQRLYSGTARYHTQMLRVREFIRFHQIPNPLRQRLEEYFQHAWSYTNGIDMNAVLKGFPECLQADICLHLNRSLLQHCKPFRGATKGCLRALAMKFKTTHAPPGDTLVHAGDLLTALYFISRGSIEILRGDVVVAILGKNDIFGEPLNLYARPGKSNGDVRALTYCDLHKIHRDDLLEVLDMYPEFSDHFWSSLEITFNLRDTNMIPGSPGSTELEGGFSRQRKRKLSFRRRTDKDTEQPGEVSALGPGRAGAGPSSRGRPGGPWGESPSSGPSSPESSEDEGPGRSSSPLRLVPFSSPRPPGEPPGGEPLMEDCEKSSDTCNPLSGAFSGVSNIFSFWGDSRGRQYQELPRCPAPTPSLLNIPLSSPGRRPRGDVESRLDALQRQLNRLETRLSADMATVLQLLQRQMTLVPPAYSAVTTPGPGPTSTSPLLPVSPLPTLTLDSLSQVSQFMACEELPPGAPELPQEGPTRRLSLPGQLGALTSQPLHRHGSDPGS
# Sequence of Hepatocyte growth factor receptor (P08581 whole entry): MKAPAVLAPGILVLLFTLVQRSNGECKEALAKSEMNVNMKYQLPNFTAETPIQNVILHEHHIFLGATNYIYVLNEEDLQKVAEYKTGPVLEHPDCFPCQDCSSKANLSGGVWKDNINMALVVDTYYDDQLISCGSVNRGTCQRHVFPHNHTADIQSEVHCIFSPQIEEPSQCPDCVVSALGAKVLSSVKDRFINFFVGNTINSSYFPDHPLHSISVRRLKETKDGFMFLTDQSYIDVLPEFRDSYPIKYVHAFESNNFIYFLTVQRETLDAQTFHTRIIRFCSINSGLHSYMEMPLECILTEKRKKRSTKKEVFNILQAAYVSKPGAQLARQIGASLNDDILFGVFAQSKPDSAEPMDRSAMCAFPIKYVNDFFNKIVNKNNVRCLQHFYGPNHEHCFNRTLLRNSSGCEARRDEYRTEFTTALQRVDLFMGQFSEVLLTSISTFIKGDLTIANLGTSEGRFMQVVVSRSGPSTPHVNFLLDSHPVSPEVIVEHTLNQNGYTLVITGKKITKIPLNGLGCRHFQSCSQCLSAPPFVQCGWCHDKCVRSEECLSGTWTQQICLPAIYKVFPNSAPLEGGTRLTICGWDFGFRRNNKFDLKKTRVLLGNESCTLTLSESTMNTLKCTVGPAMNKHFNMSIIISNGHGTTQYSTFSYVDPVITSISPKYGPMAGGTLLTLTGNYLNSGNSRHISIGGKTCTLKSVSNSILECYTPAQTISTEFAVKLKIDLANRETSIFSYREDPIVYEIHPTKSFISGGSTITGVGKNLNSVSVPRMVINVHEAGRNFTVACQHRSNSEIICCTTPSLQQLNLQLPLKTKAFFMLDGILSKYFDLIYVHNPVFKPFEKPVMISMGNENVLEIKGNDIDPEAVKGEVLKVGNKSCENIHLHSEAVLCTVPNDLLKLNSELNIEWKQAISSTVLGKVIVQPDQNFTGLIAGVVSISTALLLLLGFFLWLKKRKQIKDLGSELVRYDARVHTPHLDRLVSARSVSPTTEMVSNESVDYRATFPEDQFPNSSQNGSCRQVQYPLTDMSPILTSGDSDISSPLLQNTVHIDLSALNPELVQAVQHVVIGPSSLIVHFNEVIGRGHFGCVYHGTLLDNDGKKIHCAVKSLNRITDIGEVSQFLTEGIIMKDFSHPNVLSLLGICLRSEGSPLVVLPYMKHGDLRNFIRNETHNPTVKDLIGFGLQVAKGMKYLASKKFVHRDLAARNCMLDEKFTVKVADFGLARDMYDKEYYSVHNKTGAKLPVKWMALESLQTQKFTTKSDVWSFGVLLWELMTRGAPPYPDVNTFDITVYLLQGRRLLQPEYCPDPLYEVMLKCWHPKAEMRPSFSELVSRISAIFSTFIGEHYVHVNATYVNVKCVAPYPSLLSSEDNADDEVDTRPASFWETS
# Sequence of Voltage-dependent T-type calcium channel subunit alpha-1H (O95180 whole entry): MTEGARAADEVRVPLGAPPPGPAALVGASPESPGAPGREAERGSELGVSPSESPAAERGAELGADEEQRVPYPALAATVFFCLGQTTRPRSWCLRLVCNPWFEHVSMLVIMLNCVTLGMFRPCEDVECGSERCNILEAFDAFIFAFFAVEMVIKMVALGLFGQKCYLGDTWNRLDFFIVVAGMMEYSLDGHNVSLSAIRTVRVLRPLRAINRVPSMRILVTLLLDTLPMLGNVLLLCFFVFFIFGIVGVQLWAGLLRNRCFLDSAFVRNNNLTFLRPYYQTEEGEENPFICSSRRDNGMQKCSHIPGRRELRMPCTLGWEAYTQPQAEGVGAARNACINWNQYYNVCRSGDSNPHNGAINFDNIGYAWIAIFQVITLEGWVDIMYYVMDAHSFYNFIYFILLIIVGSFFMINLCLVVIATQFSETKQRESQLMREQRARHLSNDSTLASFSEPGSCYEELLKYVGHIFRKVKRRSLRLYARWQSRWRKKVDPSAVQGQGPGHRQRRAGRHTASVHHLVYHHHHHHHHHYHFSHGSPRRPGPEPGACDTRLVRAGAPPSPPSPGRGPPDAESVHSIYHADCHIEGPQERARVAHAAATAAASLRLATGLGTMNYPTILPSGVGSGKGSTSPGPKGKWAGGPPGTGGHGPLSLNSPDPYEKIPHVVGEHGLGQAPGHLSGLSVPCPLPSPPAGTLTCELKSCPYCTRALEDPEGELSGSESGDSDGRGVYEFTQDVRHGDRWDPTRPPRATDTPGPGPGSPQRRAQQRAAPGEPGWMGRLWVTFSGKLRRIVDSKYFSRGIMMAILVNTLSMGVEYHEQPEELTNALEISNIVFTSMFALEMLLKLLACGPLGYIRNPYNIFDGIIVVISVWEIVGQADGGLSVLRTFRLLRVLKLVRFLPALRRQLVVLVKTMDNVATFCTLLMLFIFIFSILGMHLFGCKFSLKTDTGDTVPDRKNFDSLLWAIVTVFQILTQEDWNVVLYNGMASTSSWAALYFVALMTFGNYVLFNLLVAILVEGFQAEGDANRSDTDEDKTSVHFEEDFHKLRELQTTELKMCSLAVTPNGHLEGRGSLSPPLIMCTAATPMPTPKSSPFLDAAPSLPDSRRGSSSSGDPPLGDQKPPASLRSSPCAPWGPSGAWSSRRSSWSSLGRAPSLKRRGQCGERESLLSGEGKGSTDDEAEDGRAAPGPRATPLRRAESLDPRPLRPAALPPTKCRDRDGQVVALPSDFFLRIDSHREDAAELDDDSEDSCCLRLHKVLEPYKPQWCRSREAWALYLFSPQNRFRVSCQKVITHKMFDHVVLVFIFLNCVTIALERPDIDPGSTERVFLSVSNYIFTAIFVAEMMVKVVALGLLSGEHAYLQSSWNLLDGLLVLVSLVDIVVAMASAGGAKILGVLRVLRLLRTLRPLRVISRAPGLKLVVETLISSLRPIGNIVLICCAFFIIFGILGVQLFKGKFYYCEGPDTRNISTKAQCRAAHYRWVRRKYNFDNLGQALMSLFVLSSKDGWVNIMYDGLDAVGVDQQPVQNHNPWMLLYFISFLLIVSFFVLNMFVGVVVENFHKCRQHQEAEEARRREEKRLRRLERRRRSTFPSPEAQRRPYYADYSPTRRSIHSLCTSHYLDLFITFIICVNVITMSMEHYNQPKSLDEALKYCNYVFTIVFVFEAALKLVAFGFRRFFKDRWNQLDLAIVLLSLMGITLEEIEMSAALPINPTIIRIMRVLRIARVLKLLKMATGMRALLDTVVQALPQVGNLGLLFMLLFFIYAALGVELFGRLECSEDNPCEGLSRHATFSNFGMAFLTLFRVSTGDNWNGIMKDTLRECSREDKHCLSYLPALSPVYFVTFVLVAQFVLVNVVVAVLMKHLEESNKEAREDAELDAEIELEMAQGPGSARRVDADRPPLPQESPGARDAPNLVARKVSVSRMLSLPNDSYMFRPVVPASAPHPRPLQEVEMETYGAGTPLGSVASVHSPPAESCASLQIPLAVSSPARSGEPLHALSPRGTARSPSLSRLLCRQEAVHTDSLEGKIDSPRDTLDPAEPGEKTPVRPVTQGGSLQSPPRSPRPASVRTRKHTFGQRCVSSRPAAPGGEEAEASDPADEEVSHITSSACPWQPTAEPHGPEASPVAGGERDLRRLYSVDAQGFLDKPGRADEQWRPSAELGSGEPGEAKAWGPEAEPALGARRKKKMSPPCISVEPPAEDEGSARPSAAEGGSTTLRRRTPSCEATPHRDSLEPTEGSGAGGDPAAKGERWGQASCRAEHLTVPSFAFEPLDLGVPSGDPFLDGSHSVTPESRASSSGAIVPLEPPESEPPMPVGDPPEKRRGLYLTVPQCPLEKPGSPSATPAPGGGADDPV
smiles,measurement,setting,value
Cc1nnc(SCCC(=O)Nc2nc(-c3ccccc3)ns2)s1,IC50,[1],21.9 µM (active)
same,IC50,[2],24.1 µM (active)
same,IC50,Caspase-3,44.1 µM (active)
same,IC50,[3],13.1 µM (active)
same,EC50,[4],2.54 µM (active)
same,EC50,H4,8.61 µM (active)
same,EC50,[5],15 µM (active)
same,EC50,[6],> 120 µM (not active)
CCn1c(C)nc2cc(C(=O)N/N=C(\C)c3ccccc3O)ccc21,AC50,HeLa,126 µM (active)
O=C(CN1C(=O)NC2(CCCC2)C1=O)Nc1ccc(OC(F)(F)F)cc1,IC50,[7],> 67.5 µM (inactive)
same,IC50,HEK293,> 67.5 µM (inactive)
CCCC(=O)Nc1cccc(-c2nc(Nc3ccc4[nH]ncc4c3)c3cc(OCCOC)ccc3n2)c1,Ki,[8],2.51 µM (active)
same,Ki,[9],1.26 µM (active)
C=CCN1CC[C@]23CCCCC2[C@H]1Cc1ccc(O)cc13 (stereo partly specified),AC50,[10],2.24 µM (inconclusive)
O=CNC(n1cnc2c(N3CCOCC3)ncnc21)C(Cl)(Cl)Cl (stereo unspecified),IC50,[7],> 67.5 µM (inactive)
same,IC50,HEK293,> 67.5 µM (inactive)
O=C(N/C=C/c1ccccc1)c1ccccc1,AC50,HeLa,206 µM (active)
NC(=S)NCCCC(N)C(=O)O (stereo unspecified),AC50,[10],35.5 µM (inconclusive)
CCCc1cc(O)nc(SCC(=O)c2c(N)n(CC(C)C)c(=O)n(C)c2=O)n1,EC50,BJ [11],> 133 µM (inactive)
same,EC50,[12],9.13 µM (active)
same,EC50,BJ [13],> 150 µM (not active)
same,EC50,[14],12.1 µM (active)
same,EC50,BJ [15],> 150 µM (not active)
same,EC50,[16],10.7 µM (active)
same,EC50,[17],18.1 µM (active)
same,EC50,BJ [18],9.97 µM (inconclusive)

# — ChEMBL document CHEMBL1201862, “PubChem BioAssay data set” (2004)
